Our source for the Activity, Ki and IC50 values is ChEMBL document CHEMBL2146433, “Melanin concentrating hormone receptor 1 (MCHR1) antagonists-Still a viable approach for obesity treatment?” (Bioorg Med Chem Lett, 2012).

Assay [1] concerns the target T1, Melanin-concentrating hormone receptor 1 (Homo sapiens, UniProt Q99705). The experiment in a line: Binding affinity to MCHR1 receptor by cell-based assay.
Assay [2] deals with Rattus norvegicus. The experiment in a line: Antiobesity activity in obese rat assessed as reduction in body weight at 3 mg/kg, po measured on day 29. More on the design: scale not given: the % may be the effect or the level left. The class given is functional.
In assay [3] the test system is Rattus norvegicus. The experiment in a line: Antiobesity activity in obese rat assessed as reduction in body weight at 30 mg/kg, po measured on day 29. The class given is functional. More on the design: scale not given: the % may be the effect or the level left.
Assay [4] is described as follows: Displacement of [Phe13, [125I]Tyr19]-MCH from human MCHR1 receptor E4Q/A5T mutant expressed in HEK 293 cell membranes by scintillation counter. The following applies: hek293.
Assay [5] addresses T1, Melanin-concentrating hormone receptor 1. The experiment in a line: Displacement of [125I]-MCH from human MCHR1 receptor expressed in CHO-K1 cell membranes after 2 hrs by scintillation proximity assay.

T1 sequence (Q99705 whole entry): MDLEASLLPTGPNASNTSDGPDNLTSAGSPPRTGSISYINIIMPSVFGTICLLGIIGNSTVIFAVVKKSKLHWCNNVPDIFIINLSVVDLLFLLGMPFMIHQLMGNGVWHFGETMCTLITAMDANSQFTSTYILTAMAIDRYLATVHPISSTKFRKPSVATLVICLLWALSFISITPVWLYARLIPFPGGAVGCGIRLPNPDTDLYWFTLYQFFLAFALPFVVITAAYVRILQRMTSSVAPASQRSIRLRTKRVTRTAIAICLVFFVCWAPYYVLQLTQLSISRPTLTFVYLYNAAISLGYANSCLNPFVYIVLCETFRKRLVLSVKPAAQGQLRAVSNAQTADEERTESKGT

As for `COc1ccc(/C=C/C(=O)Nc2ccc3nc(N4CCOCC4)cc(C)c3c2)cc1`, the Activity in assay [1] was found to be 50 nM. With `COc1cc(-n2cnc3cc(-c4ccc(Cl)cc4)sc3c2=O)ccc1OCC1(OC(=O)CN)CC(F)(F)C1`, the Activity in the assay with Rattus norvegicus [2] and with Rattus norvegicus [3] was 10.2% in each case.

The Ki is a measure of affinity in units of concentration, obtained from inhibition or displacement. With `COc1cc(-n2cnc3cc(-c4ccc(Cl)cc4)sc3c2=O)ccc1OC[C@H](O)C1CC1`, the inhibitory constant (Ki) in assay [4] was determined as 0.018 µM. Broadly, the IC50 is the point on the concentration scale where inhibition reaches its midpoint. In assay [5], `CN(C)CC1CCc2cc(NC(=O)Nc3ccc(Oc4ccccc4)cc3)ccc2C1` (centres undefined) yielded a half-inhibitory concentration (IC50) of 0.01 µM. Compound `COc1cc(-n2cnc3cc(-c4ccc(Cl)cc4)sc3c2=O)ccc1OCC1(O)CC(F)(F)C1` yielded an inhibitory constant (Ki) in assay [4] of 0.01 µM. In assay [1], `Cc1ccc(/C=C/C(=O)Nc2ccc3nc(N4CCN(C)CC4)cc(C)c3c2)cc1` gave an Activity of 50 nM. Consider `COc1cc(-n2cnc3cc(-c4ccc(Cl)cc4)sc3c2=O)ccc1OC[C@H](OP(=O)(O)O)C1CC1` [BMS-830216], for which the Activity in the assay on Rattus norvegicus [2] and in the assay with Rattus norvegicus [3] was 7.8% each time.
